Data taken from patent US20070212355A1 (priority 2005, published 2007).

Experiments:
[1] = SEC-SLS self-association of peptides in PBS (pH 7.5); format: physicochemical; conditions: 1 mg/ml
Description: The self-association poses a challenge to the development and manufacturing of a homogeneous therapeutic.
(§1) Solution molecular weight of the peptides was measured by SEC-SLS. Briefly, peptide solutions in PBS (pH 7.5) at 0.4 to 2.0 mg/mL were fractionated over a Superdex peptide column (Amersham Pharmacia). The eluted peaks were monitored by static light scattering at 690 nm and solution molecular weight was determined at UV 280 nm using the Astra software package (Wyatt Inc.).

mice = assay: Upper gastrointestinal transit, carmine dye technique, normal mice; format: in vivo; conditions: 50 μg/mouse daily s.c. 10 days, 20-minute test period, vs PBS vehicle, FIG. 3
Description: To test the effects of A2G-GLP-2 on upper gastrointestinal transit in normal mice, mice were randomly assigned to 2 groups (14 animals per test group). Each group received daily subcutaneous injection (total volume […]) of either A2G-GLP-2 peptide (50 μg/mouse) or the phosphate-buffered saline vehicle for 10 consecutive days.
On the day of study, upper gastrointestinal transit was measured using the carmine dye technique. Mice were fed a test meal of 0.25 ml of a 6% (w/v) solution of carmine cochineal powder mixed into 0.5% (w/v) methylcellulose administered intragastrically by an 18 gauge curved feeding tube. Following oral test meal administration, mice were replaced into their home cages. Twenty minutes after marker meal administration, mice were rapidly euthanized by cervical dislocation and the entire gastrointestinal tract was excised starting from the distal colon and working towards the gastric pylorus. […] The linear distance traversed by the carmine dye front through the small intestine was measured together with the total length of the small bowel. Upper gastrointestinal transit was expressed as the percentage of the entire small intestine traversed by the carmine dye front during the 20-minute test period: % small intestine traveled =[distance traversed by dye front through small intestine (cm)/entire small intestine length (cm)×100].

[2] = CD spectra secondary structure of peptides; format: physicochemical; conditions: 0.2 mg/mL in PBS, 25° C.
Description: The secondary structures of tested peptides were determined using 0.2 mg/mL peptide solutions in PBS. Briefly, CD spectra were collected in triplicate at 1 nm intervals at 25° C. in 0.1 cm path length cell. Secondary structures were determined by fitting of the CD spectra using CD spectra software (CD Spectra Deconvolution software 2.1). All tested peptides contained peaks corresponding to the presence of alpha helices.

[3] = Helical propensity analysis using TFE (CD at 222 nm); format: physicochemical; conditions: 0.2 mg/mL in PBS (pH 7.5), MRE at 222 nm
Description: In addition, trifluoroethanol (TFE) is known to induce helix formation in peptides (Soennichsen et al., Biochemistry 31: 8791 (1992)). Accordingly, helical propensity analysis using TFE was performed. Briefly, tested peptides were diluted to 0.2 mg/mL in PBS (pH 7.5) containing 0, 1, 5, 15, 33 or 50% TFE. CD spectra were collected and CD plots were generated after data averaging, buffer subtraction and curve smoothing. Helical propensity values were obtained from mean residue ellipticity (MRE) at 222 nm versus % TFE plots. The concentration of TFE that effected a 50% transformation of the CD spectrum at 222 nm was used as a measure of helical propensity.

CD1 mice = assay: Mucosal wet weight of small intestine after 10 daily subcutaneous injections; format: in vivo; conditions: 2.5 mg/kg (13.3 nmole) daily s.c. 10 days; p<0.0001
Excerpt: Afterwards, the mice were euthanized and the small intestines were removed, flushed with saline, and processed as described below.
Specifically, 4 cm sections were harvested: (1) immediately distal to the pylorus (duodenum), (2) starting 2 cm distal of the ligament of Treitz (jejunum), and (3) immediately proximal to the cecum (ileum). The remaining small intestine from ˜6 cm distal of the ligament of Treitz to 4 cm proximal to the cecum was used to prepare mucosal scrapings. From the proximal and distal ends of the remnant, an equal distance was removed until a 15 cm section remained, the remnant was cut longitudinally, rinsed, and the mucosal layer was removed using the short end of a glass microscope slide. The wet weight of the intact intestinal segments and mucosa was measured.

[4] = background statement; cited from earlier work
mutated human GLP-2R = target: T1, mutated human GLP-2R (Homo sapiens, UniProt O95838, E512D/G511A/L513V); assay: cAMP expression assay in HEK 293E clonal cell line expressing mutated human GLP-2R; format: cell-based; conditions: Table 2; mimetibodies with Pro substitution; read-out: EC50
T1 construct: expressed in transfected cells; host or cells: HEK 293E clonal cell line
T1 sequence (O95838 1-553 G511A/E512D/L513V): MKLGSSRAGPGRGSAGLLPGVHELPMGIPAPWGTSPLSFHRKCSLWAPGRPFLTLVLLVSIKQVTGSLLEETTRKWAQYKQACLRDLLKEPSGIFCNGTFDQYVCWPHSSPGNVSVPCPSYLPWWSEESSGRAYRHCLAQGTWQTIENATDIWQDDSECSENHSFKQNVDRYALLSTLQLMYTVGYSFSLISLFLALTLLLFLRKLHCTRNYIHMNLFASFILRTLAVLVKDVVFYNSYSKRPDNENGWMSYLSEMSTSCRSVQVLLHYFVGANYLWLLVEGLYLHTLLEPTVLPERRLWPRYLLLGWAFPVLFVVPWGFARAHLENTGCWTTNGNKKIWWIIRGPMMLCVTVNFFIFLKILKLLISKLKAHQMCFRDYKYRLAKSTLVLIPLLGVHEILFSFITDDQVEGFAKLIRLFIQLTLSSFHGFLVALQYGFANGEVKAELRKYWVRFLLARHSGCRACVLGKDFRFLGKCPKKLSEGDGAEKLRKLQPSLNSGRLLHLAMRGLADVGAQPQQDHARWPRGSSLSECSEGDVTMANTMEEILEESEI
Excerpt: To achieve this goal, a clonal cell line expressing a mutated human GLP-2R was generated by transfecting HEK 293E cells. The mutated human GLP-2R differs from the wild-type human GLP-2R (SEQ ID NO: 35) at three amino acid positions within the C-terminal intracellular region (SEQ ID NO: 36).
The cAMP expression was quantitated using the cAMP Direct Screen System (Cat. No. CSD 200, Applied Biosystems, Bedford, Mass.).
This assay was based on the cAMP Direct Screen System from Applied Biosystems utilizing a cell line expressing mutated huGLP-2R in HEK 293E cells. Peptide at concentrations ranging from 0.01 nM to 1.0 uM in PBS with 0.5% BSA was added to ˜50,000 cells suspended in 96-well plates. After a 30-minute incubation at 37° C., Lysis Buffer followed by luminescence reagents (Applied Biosystems) was added according to the manufacturers' procedures (Applied Biosystems Luminescence protocol: cAMP-Screen Direct System). Luminescence was quantitated using a TopCount liquid scintillation analyzer (PerkinElmer), and data was processed using Softmax software (Molecular Devices Corporation).

[5] = Incubation with U937 cell lysate, SDS-PAGE (proteolysis resistance); format: in vitro ADME; conditions: 0, 12, 24 hours; in comparison with A2G GLP-2 mimetibody (SEQ ID NO: 5); FIG. 1
Description: The purified Pro substitution variants were incubated with U937 cell lysate in the presence of CompleteMini protease inhibitor tablets (Cat. No. 1 836 153, Roche Applied Science, Indianapolis, Ind.) for 0, 12, or 24 hours. Afterwards, GLP-2 mimetibody variants were purified using Protein A beads and resolved on a SDS-PAGE gel.

[6] = SEC-SLS analysis of mimetibodies (monomer/dimer); format: physicochemical; conditions: purified from HEK 293E/HEK 293 expression
[7] = target: the molecule itself; assay: SEC-SLS, self-association at 1 mg/ml in PBS pH 7.5
Description: as §1

Molecule: CC[C@H](C)[C@H](NC(=O)[C@H](Cc1ccccc1)NC(=O)[C@H](CC(=O)O)NC(=O)[C@H](CCCNC(=N)N)NC(=O)[C@H](C)NC(=O)[C@H](C)NC(=O)[C@H](CC(C)C)NC(=O)[C@H](CC(N)=O)NC(=O)[C@H](CC(=O)O)NC(=O)[C@H](CC(C)C)NC(=O)[C@@H](NC(=O)[C@@H](NC(=O)[C@H](CC(N)=O)NC(=O)[C@H](CCSC)NC(=O)[C@H](CCC(=O)O)NC(=O)[C@H](CC(=O)O)NC(=O)[C@H](CO)NC(=O)[C@H](Cc1ccccc1)NC(=O)[C@H](CO)NC(=O)CNC(=O)[C@H](CC(=O)O)NC(=O)CNC(=O)[C@@H](N)Cc1c[nH]cn1)[C@@H](C)O)[C@@H](C)CC)C(=O)N[C@@H](CC(N)=O)C(=O)N[C@@H](Cc1c[nH]c2ccccc12)C(=O)N[C@@H](CC(C)C)C(=O)N[C@H](C(=O)N[C@@H](CCC(N)=O)C(=O)N[C@H](C(=O)N[C@@H](CCCCN)C(=O)N[C@H](C(=O)N[C@H](C(=O)N[C@@H](CC(=O)O)C(=O)O)[C@@H](C)O)[C@@H](C)CC)[C@@H](C)O)[C@@H](C)CC [SEQ ID NO: 3]
- SEC-SLS elution / self-association state [1]: overlapping dimer and monomer peaks
- upper gastrointestinal transit (% small intestine traveled by carmine dye front) (mice; listed as A2G-GLP-2): acceleration of upper gastrointestinal transit
- upper gastrointestinal transit (% small intestine traveled by carmine dye front) (mice; listed as A2G-GLP-2 peptide): significant acceleration of intestinal transit
- Helix (percentage of helical structure) [2]: 20.7%
- Random coil (percentage) [2]: 37.1%
- TFE required for helical transformation (helical propensity) [3]: ~16 % TFE
- increase in mucosal wet weight (CD1 mice): statistically significant increase

Molecule: CC[C@H](C)[C@H](NC(=O)[C@H](Cc1ccccc1)NC(=O)[C@H](CC(=O)O)NC(=O)[C@H](CCCNC(=N)N)NC(=O)[C@H](C)NC(=O)[C@H](C)NC(=O)[C@H](CC(C)C)NC(=O)[C@H](CC(N)=O)NC(=O)[C@H](CC(=O)O)NC(=O)[C@H](CC(C)C)NC(=O)[C@@H](NC(=O)[C@@H](NC(=O)[C@H](CC(N)=O)NC(=O)[C@H](CCSC)NC(=O)[C@H](CCC(=O)O)NC(=O)[C@H](CC(=O)O)NC(=O)[C@H](CO)NC(=O)[C@H](Cc1ccccc1)NC(=O)[C@H](CO)NC(=O)CNC(=O)[C@H](CC(=O)O)NC(=O)CNC(=O)[C@@H](N)Cc1c[nH]cn1)[C@@H](C)O)[C@@H](C)CC)C(=O)N[C@@H](CC(N)=O)C(=O)N[C@@H](Cc1c[nH]c2ccccc12)C(=O)N[C@@H](CC(C)C)C(=O)N[C@H](C(=O)N[C@@H](CCC(N)=O)C(=O)N[C@H](C(=O)N[C@@H](CCCCN)C(=O)N[C@H](C(=O)N[C@H](C(=O)N[C@@H](CC(=O)O)C(=O)O)[C@@H](C)O)[C@@H](C)CC)[C@@H](C)O)[C@@H](C)CC [teduglutide]
- half-life [4]: less than 30 minutes

Molecule: SEQ ID NO: 43: GLP-2 mimetibody Pro substitution variant; core HGDGSFSDEMNTILDNLAARDFINWLIQTKITDGSGGGSGALVAVPSESKYGPPCPPCP (Mimetibody)
- EC50 (mutated human GLP-2R): 4.8 nM
- degradation after incubation with U937 cell lysate [5]: less degradation

Molecule: SEQ ID NO: 44: GLP-2 mimetibody Pro substitution variant; core HGDGSFSDEMNTILDNLAARDFINWLIQTKITDGSGGGSGALVAVSPESKYGPPCPPCP (Mimetibody)
- EC50 (mutated human GLP-2R): 7.7 nM
- degradation after incubation with U937 cell lysate [5]: less degradation

B1: SEQ ID NO: 4: A2S GLP-2 mimetibody, IgG4 Hg-CH2-CH3 with S228P and P234A/L235A (protein)
chain: HSDGSFSDEMNTILDNLAARDFINWLIQTKITDGSGGGSGTLVTVSSESKYGPPCPPCPAPEAAGGPSVFLFPPKPDTLMISRTPEVTCVVVDVSQEDPEVQFNWYVDGVEVHNAKTKPREEQFNSTYRVVSVLTVLHQDWLNGKEYKCKVSNKGLPSSIEKTISKAKGQPREPQVYTLPPSQEEMTKNQVSLTCLVKGFYPSDIAVEWESNGQPENNYKTTPPVLDSDGSFFLYSRLTVDKSRWQEGNVFSCSVMHEALHNHYTQKSLSLSLGK
modifications: Mimetibody
- SEC-SLS association state of mimetibody [6]: dimer

B2: A2G GLP-2 peptide (peptide)
peptide: HGDGSFSDEMNTILDNLAARDFINWLIQTKITD
notes: Analog of human GLP-2 with Ala2 changed to Gly; also called A2G peptide; GLP-2(A2G)
- binding result [7]: binds
